# Like-named read-outs stand apart in the source and are kept apart here.
# Assays:
# [1] = target: active phosphorylated p38α MAPK (Homo sapiens (Human), UniProt Q16539); assay: Fluorescence polarisation (FP) binding assay, active enzyme
# Description: (§1) A number of compounds were also assessed for the inhibition of p38α MAPK activity (www.kinase-screen.mrc.ac.uk) in which a radioactive (^33P-labelled ATP) filter binding assay was used to directly measure phosphate incorporation. Table 1 summarises the binding affinities of the synthesised compounds to both forms of the enzyme as well as the inhibitory activities against p38α MAPK. By way of enabling a comparison with a non-thiophene compound the biological testing was also carried out for known inhibitor RWJ67657, shown in table 1.
# (§2) FP signals were measured with a PHERAstar microplate reader (BMG Labtech) using black, low-binding half-area 96 well plates (Corning). Each binding data point was carried out in duplicate or triplicate. Data were recorded in millipolarisation (mP) units and measured at an excitation wavelength of 485 nm and an emission wavelength of 520 nm. Tris(hydroxymethyl)aminomethane (Tris) assay buffer was used in all binding experiments and consisted of 10 mM Tris, […] potassium chloride, and 3.5 mM 3-((3-cholamidopropyl)dimethylammonium)-1-propanesulfonate (Chaps) at pH 8.0.
# (§3) Test compounds were prepared from dimethylsulfoxide stocks (10 mM). […] Plates were incubated at room temperature for 1 hour and FP signals were recorded. For binding experiments to active p38α MAPK, the FP signals were recorded after 2 hours incubation at room temperature. Data is represented as mean±SEM from two to three independent experiments.
# [2] = target: inactive non-phosphorylated p38α MAPK (Homo sapiens (Human), UniProt Q16539); assay: Fluorescence polarisation (FP) binding assay, inactive enzyme
# Description: as §1, §2, §3
# [3] = Table 6, read-out: Ki ± SEM (μM) to active p38α
# [4] = Table 5, read-out: Ki ± SEM (μM) to inactive p38α MAPK
# [5] = Table 6, read-out: Ki ± SEM (μM) to inactive p38α
# Chain of active phosphorylated p38α MAPK (Q16539 whole entry): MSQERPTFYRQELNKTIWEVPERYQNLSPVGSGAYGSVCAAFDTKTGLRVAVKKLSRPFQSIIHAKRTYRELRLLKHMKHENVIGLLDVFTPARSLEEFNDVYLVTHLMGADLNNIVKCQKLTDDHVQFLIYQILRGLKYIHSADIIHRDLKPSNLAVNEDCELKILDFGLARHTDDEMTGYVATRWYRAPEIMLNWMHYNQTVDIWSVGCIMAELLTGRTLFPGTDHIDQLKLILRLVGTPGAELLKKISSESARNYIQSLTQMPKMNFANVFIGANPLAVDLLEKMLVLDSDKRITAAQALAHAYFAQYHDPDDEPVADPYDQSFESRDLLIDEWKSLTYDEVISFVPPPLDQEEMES
# Chain of inactive non-phosphorylated p38α MAPK (Q16539 whole entry): as above
"Ki ([1]; Table 5, read-out: Ki ± SEM (μM) to active p38α MAPK) [µM]","Ki [1, 3] [µM]","Ki [2, 4] [µM]","Ki [2, 5] [µM]",SMILES
–,> 10,–,> 10,"O=C(Nc1cccc(-c2c(C#CCCO)sc(-c3ccc(F)cc3)c2-c2ccncc2)c1)c1ccccc1 [Compound 3.43, N-(3-(5-(4-fluorophenyl)-2-(4-hydroxybut-1-yn-1-yl)-4-(pyridin-4-yl)thiophen-3-yl)phenyl)benzamide]"
–,> 10,–,> 10,"O=C(Nc1ccc(-c2c(C#CCCO)sc(-c3ccc(F)cc3)c2-c2ccncc2)cc1)c1ccccc1 [Compound 3.44, N-(4-(5-(4-fluorophenyl)-2-(4-hydroxybut-1-yn-1-yl)-4-(pyridin-4-yl)thiophen-3-yl)phenyl)benzamide]"
–,> 10,–,> 10,"Cc1ccc(S(=O)(=O)Nc2cccc(-c3c(C#CCCO)sc(-c4ccc(F)cc4)c3-c3ccncc3)c2)cc1 [Compound 3.45, N-(3-(5-(4-fluorophenyl)-2-(4-hydroxybut-1-yn-1-yl)-4-(pyridin-4-yl)thiophen-3-yl)phenyl)-4-methylbenzenesulfonamide]"
–,> 10,–,> 10,"Cc1ccc(S(=O)(=O)Nc2ccc(-c3c(C#CCCO)sc(-c4ccc(F)cc4)c3-c3ccncc3)cc2)cc1 [Compound 3.46, N-(4-(5-(4-fluorophenyl)-2-(4-hydroxybut-1-yn-1-yl)-4-(pyridin-4-yl)thiophen-3-yl)phenyl)-4-methylbenzenesulfonamide]"
–,1.8 ± 0.4,–,> 10,"N#Cc1cccc(-c2c(C#CCCO)sc(-c3ccc(F)cc3)c2-c2ccncc2)c1 [Compound 3.47, 3-(5-(4-Fluorophenyl)-2-(4-hydroxybut-1-yn-1-yl)-4-(pyridin-4-yl)thiophen-3-yl)benzonitrile]"
–,> 10,–,> 10,"Cc1cccc(-c2c(C#CCCO)sc(-c3ccc(F)cc3)c2-c2ccncc2)c1 [Compound 3.48, 4-(5-(4-Fluorophenyl)-4-(pyridin-4-yl)-3-(m-tolyl)thiophen-2-yl)but-3-yn-1-ol]"
–,> 10,–,> 10,"CN(C)c1ccc(-c2c(C#CCCO)sc(-c3ccc(F)cc3)c2-c2ccncc2)cc1 [Compound 3.49, 4-(3-(4-(Dimethylamino)phenyl)-5-(4-fluorophenyl)-4-(pyridin-4-yl)thiophen-2-yl)but-3-yn-1-ol]"
–,0.9 ± 0.4,–,> 10,"OCCC#Cc1sc(-c2ccc(F)cc2)c(-c2ccncc2)c1-c1ccc(F)cc1 [Compound 3.50, 4-(3,5-bis(4-Fluorophenyl)-4-(pyridin-4-yl)thiophen-2-yl)but-3-yn-1-ol]"
–,> 10,–,> 10,"OCCC#Cc1sc(-c2ccc(F)cc2)c(-c2ccncc2)c1-c1ccc(Cl)cc1 [Compound 3.51, 4-(3-(4-Chlorophenyl)-5-(4-fluorophenyl)-4-(pyridin-4-yl)thiophen-2-yl)but-3-yn-1-ol]"
–,> 10,–,> 10,"OCCC#Cc1sc(-c2ccc(F)cc2)c(-c2ccncc2)c1-c1ccc(C(F)(F)F)cc1 [Compound 3.52, 4-(5-(4-Fluorophenyl)-4-(pyridin-4-yl)-3-(4-(trifluoromethyl)phenyl)thiophen-2-yl)but-3-yn-1-ol]"
–,2.2 ± 0.3,–,> 10,"CC(=O)c1ccc(-c2c(C#CCCO)sc(-c3ccc(F)cc3)c2-c2ccncc2)cc1 [Compound 3.53, 1-(4-(5-(4-Fluorophenyl)-2-(4-hydroxybut-1-yn-1-yl)-4-(pyridin-4-yl)thiophen-3-yl)phenyl)ethanone]"
–,3.4,–,> 10,"OCCC#Cc1sc(-c2ccc(F)cc2)c(-c2ccncc2)c1-c1ccc(O)cc1 [Compound 3.54, 4-(5-(4-Fluorophenyl)-2-(4-hydroxybut-1-yn-1-yl)-4-(pyridin-4-yl)thiophen-3-yl)phenol]"
–,> 10,–,> 10,"OCCC#Cc1sc(-c2ccc(F)cc2)c(-c2ccncc2)c1I [Compound 3.55, 4-(5-(4-Fluorophenyl)-3-iodo-4-(pyridin-4-yl)thiophen-2-yl)but-3-yn-1-ol]"
–,–,> 10,> 10,"NCC#Cc1cc(-c2ccncc2)c(-c2ccc(F)cc2)s1 [Compound 5.6, 3-(5-(4-Fluorophenyl)-4-(pyridin-4-yl)thiophen-2-yl)prop-2-yn-1-amine]"

# The next lines start with the compound.
SMILES,"Ki ([1]; Table 5, read-out: Ki ± SEM (μM) to active p38α MAPK) [µM]","Ki [1, 3] [µM]","Ki [2, 4] [µM]","Ki [2, 5] [µM]"
"Fc1ccc(-c2sccc2-c2ccncc2)cc1 [Compound 3.2, 4-(2-(4-Fluorophenyl)thiophen-3-yl)pyridine]",0.6 ± 0.1,0.6 ± 0.1,5 ± 0.4,5 ± 0.4
"Fc1ccc(-c2sc(I)c(I)c2-c2ccncc2)cc1 [Compound 3.3, 4-(2-(4-Fluorophenyl)-4,5-diiodothiophen-3-yl)pyridine]",–,> 10,–,> 10
"COC(=O)c1ccccc1-c1c(C#CCCO)sc(-c2ccc(F)cc2)c1-c1ccncc1 [Compound 3.28, Methyl 2-(5-(4-fluorophenyl)-2-(4-hydroxybut-1-yn-1-yl)-4-(pyridin-4-yl)thiophen-3-yl)benzoate]",–,8.7,–,> 10
"COC(=O)c1cccc(-c2c(C#CCCO)sc(-c3ccc(F)cc3)c2-c2ccncc2)c1 [Compound 3.29, Methyl 3-(5-(4-fluorophenyl)-2-(4-hydroxybut-1-yn-1-yl)-4-(pyridin-4-yl)thiophen-3-yl)benzoate]",–,3,–,> 10
"COC(=O)c1ccc(-c2c(C#CCCO)sc(-c3ccc(F)cc3)c2-c2ccncc2)cc1 [Compound 3.30, Methyl 4-(5-(4-fluorophenyl)-2-(4-hydroxybut-1-yn-1-yl)-4-(pyridin-4-yl)thiophen-3-yl)benzoate]",–,> 10,–,> 10
"O=C(O)c1cccc(-c2c(C#CCCO)sc(-c3ccc(F)cc3)c2-c2ccncc2)c1 [Compound 3.31, 3-(5-(4-Fluorophenyl)-2-(4-hydroxybut-1-yn-1-yl)-4-(pyridin-4-yl)thiophen-3-yl)benzoic acid]",–,7.1,–,> 10
"O=C(O)c1ccc(-c2c(C#CCCO)sc(-c3ccc(F)cc3)c2-c2ccncc2)cc1 [Compound 3.32, 4-(5-(4-Fluorophenyl)-2-(4-hydroxybut-1-yn-1-yl)-4-(pyridin-4-yl)thiophen-3-yl)benzoic acid]",–,> 10,–,> 10
"OCCC#Cc1sc(-c2ccc(F)cc2)c(-c2ccncc2)c1-c1cccc(CO)c1 [Compound 3.33, 4-(5-(4-Fluorophenyl)-3-(3-(hydroxymethyl)phenyl)-4-(pyridin-4-yl)thiophen-2-yl)but-3-yn-1-ol]",–,1.3 ± 0.2,–,> 10
"OCCC#Cc1sc(-c2ccc(F)cc2)c(-c2ccncc2)c1-c1ccc(CO)cc1 [Compound 3.34, 4-(5-(4-Fluorophenyl)-3-(4-(hydroxymethyl)phenyl)-4-(pyridin-4-yl)thiophen-2-yl)but-3-yn-1-ol]",–,3.5,–,> 10
"NC(=O)c1cccc(-c2c(C#CCCO)sc(-c3ccc(F)cc3)c2-c2ccncc2)c1 [Compound 3.35, 3-(5-(4-Fluorophenyl)-2-(4-hydroxybut-1-yn-1-yl)-4-(pyridin-4-yl)thiophen-3-yl)benzamide]",–,2.2 ± 0.3,–,> 10
"NC(=O)c1ccc(-c2c(C#CCCO)sc(-c3ccc(F)cc3)c2-c2ccncc2)cc1 [Compound 3.36, 4-(5-(4-Fluorophenyl)-2-(4-hydroxybut-1-yn-1-yl)-4-(pyridin-4-yl)thiophen-3-yl)benzamide]",–,2 ± 1,–,> 10
"O=C(NCCO)c1cccc(-c2c(C#CCCO)sc(-c3ccc(F)cc3)c2-c2ccncc2)c1 [Compound 3.37, 3-(5-(4-Fluorophenyl)-2-(4-hydroxybut-1-yn-1-yl)-4-(pyridin-4-yl)thiophen-3-yl)-N-(2-hydroxyethyl)benzamide]",–,2 ± 1,–,1.9 ± 0.2
"O=C(NCCO)c1ccc(-c2c(C#CCCO)sc(-c3ccc(F)cc3)c2-c2ccncc2)cc1 [Compound 3.38, 4-(5-(4-Fluorophenyl)-2-(4-hydroxybut-1-yn-1-yl)-4-(pyridin-4-yl)thiophen-3-yl)-N-(2-hydroxyethyl)benzamide]",–,1.7 ± 0.2,–,> 10
"Nc1cccc(-c2c(C#CCCO)sc(-c3ccc(F)cc3)c2-c2ccncc2)c1 [Compound 3.39, 4-(3-(3-Aminophenyl)-5-(4-fluorophenyl)-4-(pyridin-4-yl)thiophen-2-yl)but-3-yn-1-ol]",–,3.2,–,> 10
"Nc1ccc(-c2c(C#CCCO)sc(-c3ccc(F)cc3)c2-c2ccncc2)cc1 [Compound 3.40, 4-(3-(4-Aminophenyl)-5-(4-fluorophenyl)-4-(pyridin-4-yl)thiophen-2-yl)but-3-yn-1-ol]",–,> 10,–,> 10
"CC(=O)Nc1cccc(-c2c(C#CCCO)sc(-c3ccc(F)cc3)c2-c2ccncc2)c1 [Compound 3.41, N-(3-(5-(4-fluorophenyl)-2-(4-hydroxybut-1-yn-1-yl)-4-(pyridin-4-yl)thiophen-3-yl)phenyl)acetamide]",–,2 ± 0.1,–,2.6 ± 0.6
"CC(=O)Nc1ccc(-c2c(C#CCCO)sc(-c3ccc(F)cc3)c2-c2ccncc2)cc1 [Compound 3.42, N-(4-(5-(4-fluorophenyl)-2-(4-hydroxybut-1-yn-1-yl)-4-(pyridin-4-yl)thiophen-3-yl)phenyl)acetamide]",–,> 10,–,> 10
